Laboratory results as given in patent publication US12029751B2, “Therapeutic agent for nervous system disease” (OSAKA UNIVERSITY, priority 2017, dated 2024).

What was measured:
[1] = system: cerebral cortical neurons; experiment: LDH assay, necrosis inhibiting effect under oxygen-glucose deprivation (OGD) stress; format: cell-based, rat; conditions: 10 μM methylcobalamin 30 minutes before OGD stress (3 hours), measured after 24 hours
Source text: Cerebral cortical neurons were collected and cultured by a conventional method. Cerebral cortex was dissected from a fetus of a Sprague-Dawley (SD) rat (18th day of pregnancy) and recovered in ice-cooled Dulbecco's Modified Eagle Medium (DMEM) containing 10% fetal bovine serum (FBS) and 1% penicillin/streptomycin. The pia mater and blood vessels were removed, and the remaining cerebral cortex was transferred to DMEM (containing 1% penicillin/streptomycin and no FBS) and cut into small pieces having a size of 1 mm by surgical scissors. Papain (final concentration, 2 mg/ml) was added to the cell mixture, and the mixture was allowed to react at 37° C. for 30 minutes. DNase I (70 U/ml) was added to the reaction mixture and reaction was carried out for 30 seconds. Then, DMEM containing 10% FBS and 1% penicillin/streptomycin was added to terminate the reaction. […]
To the cerebral cortical neurons (Example 1-1) cultured on a PLL-coated 6-well chamber slide, 10 μM methylcobalamin was added at 30 minutes before exposure to oxygen-glucose deprivation (OGD) stress. […] After 24 hours, the supernatant was collected, and LDH activity was measured using Cytotoxicity Detection Kit^PLUS (SIGMA). LDH activities of the control group and the methylcobalamin addition group were calculated as proportions (%) with respect to the LDH activity of the high control.

[2] = system: cerebral cortical neurons; experiment: Neurite outgrowth assay (axon outgrowth promoting effect); format: cell-based, rat; conditions: for average length of axons: 72 hours after cell seeding
Source text: Cerebral cortical neurons were collected and cultured by a conventional method. Cerebral cortex was dissected from a fetus of a Sprague-Dawley (SD) rat (18th day of pregnancy) and recovered in ice-cooled Dulbecco's Modified Eagle Medium (DMEM) containing 10% fetal bovine serum (FBS) and 1% penicillin/streptomycin. The pia mater and blood vessels were removed, and the remaining cerebral cortex was transferred to DMEM (containing 1% penicillin/streptomycin and no FBS) and cut into small pieces having a size of 1 mm by surgical scissors. Papain (final concentration, 2 mg/ml) was added to the cell mixture, and the mixture was allowed to react at 37° C. for 30 minutes. DNase I (70 U/ml) was added to the reaction mixture and reaction was carried out for 30 seconds. Then, DMEM containing 10% FBS and 1% penicillin/streptomycin was added to terminate the reaction. The cell mixture was centrifuged at 800 rpm, the residue was re-suspended in DMEM containing 10% FBS and 1% penicillin/streptomycin, and the suspension was seeded on a dish coated with poly-L lysine (PLL). At 4 hours after the cell seeding, the medium was replaced with Neurobasal medium (containing 10% B27 supplement and 1% penicillin/streptomycin).
The cerebral cortical neurons (Example 1-1) were seeded, and the drug was added in different concentrations at 24 hours. The concentrations of methylcobalamin added were 1, 10, and 100 nM and 1, 10, and 100 μM. At 72 hours after the cell seeding, immunofluorescent staining was performed using an anti-TuJ1 antibody, and the lengths of axons (the longest neurite length per neuron) were measured. The measurement was performed on cells that were not in contact with other cells. In each evaluation, at least 30 neural axons were measured, and the mean of the obtained values was calculated and designated as a measured value.

[3] = system: Mouse macrophage cell line J774A.1; experiment: Western blot of M1 markers (IL-1β, iNOS) and M2 markers (Arg1, CD206) in macrophage cell line; format: cell-based; conditions: for Arg1 protein / GAPDH protein / CD206 protein / GAPDH protein: 72 hours; for IL-1β protein / GAPDH protein / iNOS protein / GAPDH protein: 24 hours
Procedure: Mouse macrophage cell line J774A.1 (JCRB9108) was purchased from JCRB Cell Bank (Laboratory of Cell Cultures), Osaka, Japan. Cells were cultured in DMEM containing 10% FBS and 1% penicillin/streptomycin.
The J774A.1 cells (Example 5-1) were seeded on a dish having a diameter of 6 cm. After 4 days, proteins were collected using a cell lysis buffer containing a cocktail of protease inhibitors. The protein concentration was measured by BCA assay. Then, 50 μg of each sample was subjected to SDS-PAGE, and the electrophoresed proteins were transferred to a polyvinylidene difluoride membrane. The membrane was blocked with a blocking buffer for 1 hour, and then the proteins were allowed to react with primary antibodies at 4° C. overnight. The proteins were further allowed to react with a secondary antibody at room temperature for 1 hour and detected using ECL Western Blotting Detection System. To detect the M1 markers iNOS and IL-1β, lipopolysaccharide (LPS) (100 ng/ml) and methylcobalamin were added at 24 hours before collecting the proteins. To detect the M2 markers Arg1 and CD206, IL-4 (20 ng/ml) and methylcobalamin were added at 72 hours before collecting the proteins.
The primary antibodies used were a rabbit anti-IL-1β polyclonal antibody (Santa Cruz), a rabbit anti-iNOS monoclonal antibody (Abeam), a rabbit anti-Arg1 polyclonal antibody (Santa Cruz), and a rabbit anti-CD206 monoclonal antibody (Abeam). The secondary antibody used was anti-rabbit IgG, horseradish peroxidase-linked whole antibody from donkey (GE Healthcare Life Sciences).

[4] = system: photocoagulation-induced cerebral infarction model C57BL/6J mice; experiment: Rotarod test in photocoagulation-induced cerebral infarction model; format: in vivo, mouse
Procedure: Eight to 10-week-old male C57BL/6J mice (about 24 g) were used. A photocoagulation-induced cerebral infarction model for laser light irradiation after rose bengal administration was constructed. In this model, the skull of each mouse was drilled to open a hole having a center at 2 mm from the anterior fontanel in the outward direction. At 5 minutes after a photosensitive dye rose bengal was administered, the right motor cortex as a center was irradiated with laser light to create cerebral infarction in the right lateral motor cortex. An osmotic pump (ALZET osmotic pumps, for 2-week operation) was embedded immediately after the creation of the cerebral infarction. The mice were divided into a methylcobalamin treatment group (N=3) and an untreated group (N=4), and rotarod tests (accelerating velocity method) were carried out at 2, 4, 7, 9, 11, and 14 days after the surgery creating cerebral infarction. The time until a mouse fell from a rotarod was measured, and a ratio to a maximum of 300 seconds as baseline was calculated.

## C/C1=C2/[N-][C@H]([C@H](CC(N)=O)[C@@]2(C)CCC(=O)NC[C@@H](C)OP(=O)([O-])O[C@H]2[C@@H](O)[C@@H](n3cnc4cc(C)c(C)cc43)O[C@@H]2CO)[C@]2(C)N=C(/C(C)=C3N=C(/C=C4N=C1[C@@H](CCC(N)=O)C\4(C)C)[C@@H](CCC(N)=O)[C@]\3(C)CC(N)=O)[C@@H](CCC(N)=O)[C@]2(C)CC(N)=O.[CH3-].[Co+3] [MeCbl, methylcobalamin]
[1]
  LDH activity as proportion with respect to the high control: 1.3%
[1]; listed as methylcobalamin
  LDH activity as proportion with respect to the high control: significantly decreased
[2]; MeCbl 1 nM
  average length of axons: 67.2 µm
[2]; MeCbl 10 nM
  average length of axons: 71.2 µm
[2]; MeCbl 100 nM
  average length of axons: 75.2 µm
[2]; MeCbl 1 μM
  average length of axons: 79.9 µm
[2]; MeCbl 1 μM, listed as methylcobalamin
  average length of axons: significantly promoted
[2]; MeCbl 10 μM
  average length of axons: 86.4 µm
[2]; MeCbl 10 μM, listed as methylcobalamin
  average length of axons: significantly promoted
[2]; MeCbl 100 μM
  average length of axons: 66.2 µm
[2]; concentrations 1 nM to 100 μM tested
  methylcobalamin concentration at peak of axon outgrowth promotion: 10 µM
[3]; IL-4 20 ng/ml + MeCbl 1 nM
  Arg1 protein / GAPDH protein: 1.42
  CD206 protein / GAPDH protein: 1.28
[3]; IL-4 20 ng/ml + MeCbl 10 nM
  Arg1 protein / GAPDH protein: 1.60
  CD206 protein / GAPDH protein: 1.49
[3]; IL-4 20 ng/ml + MeCbl 100 nM
  Arg1 protein / GAPDH protein: 1.93
  CD206 protein / GAPDH protein: 1.53
[3]; IL-4 20 ng/ml + MeCbl 100 nM, listed as methylcobalamin
  Arg1 protein / GAPDH protein: significantly increased
[3]; IL-4 20 ng/ml + MeCbl 1 μM
  Arg1 protein / GAPDH protein: 1.65
  CD206 protein / GAPDH protein: 1.58
[3]; IL-4 20 ng/ml + MeCbl 1 μM, listed as methylcobalamin
  Arg1 protein / GAPDH protein: significantly increased
[3]; IL-4 20 ng/ml + MeCbl 10 μM
  Arg1 protein / GAPDH protein: 1.26
  CD206 protein / GAPDH protein: 1.08
[3]; IL-4 20 ng/ml + MeCbl 100 μM
  Arg1 protein / GAPDH protein: 0.92
  CD206 protein / GAPDH protein: 1.12
[3]; IL-4 20 ng/ml + MeCbl 1 mM
  Arg1 protein / GAPDH protein: 0.54
  CD206 protein / GAPDH protein: 0.78
[3]; IL-4 + methylcobalamin, Western blot
  methylcobalamin concentration at peaks of the CD206 levels: 100 to 1000 nM
[3]; LPS 100 ng/ml + MeCbl 1 nM
  IL-1β protein / GAPDH protein: 0.91
  iNOS protein / GAPDH protein: 0.87
[3]; LPS 100 ng/ml + MeCbl 10 nM
  IL-1β protein / GAPDH protein: 0.68
  iNOS protein / GAPDH protein: 0.56
[3]; LPS 100 ng/ml + MeCbl 100 nM
  IL-1β protein / GAPDH protein: 0.46
  iNOS protein / GAPDH protein: 0.15
[3]; LPS 100 ng/ml + MeCbl 100 nM, listed as methylcobalamin
  IL-1β protein / GAPDH protein: significantly decreased
[3]; LPS 100 ng/ml + MeCbl 1 μM
  IL-1β protein / GAPDH protein: 0.46
  iNOS protein / GAPDH protein: 0.27
[3]; LPS 100 ng/ml + MeCbl 10 μM
  IL-1β protein / GAPDH protein: 0.60
  iNOS protein / GAPDH protein: 0.33
[3]; LPS 100 ng/ml + MeCbl 100 μM
  IL-1β protein / GAPDH protein: 0.75
  iNOS protein / GAPDH protein: 0.45
[3]; LPS 100 ng/ml + MeCbl 1 mM
  IL-1β protein / GAPDH protein: 1.26
  iNOS protein / GAPDH protein: 0.53
[3]; LPS + 100 nM to 10 μM methylcobalamin
  iNOS level (Western blot) as compared with LPS alone: significantly decreased
[4]; 0 day after PIT operation (baseline)
  rotarod test: time until fall, ratio to a maximum of 300 seconds as baseline: 0.998
[4]; 2 days after PIT operation, osmotic pump
  rotarod test: time until fall, ratio to a maximum of 300 seconds as baseline: 0.470
[4]; 2 days after PIT operation, osmotic pump, listed as methylcobalamin
  rotarod test: time until fall, ratio to a maximum of 300 seconds as baseline: significantly improved
[4]; 4 days after PIT operation, osmotic pump
  rotarod test: time until fall, ratio to a maximum of 300 seconds as baseline: 0.573
[4]; 4 days after PIT operation, osmotic pump, listed as methylcobalamin
  rotarod test: time until fall, ratio to a maximum of 300 seconds as baseline: significantly improved
[4]; 7 days after PIT operation, osmotic pump
  rotarod test: time until fall, ratio to a maximum of 300 seconds as baseline: 0.370
[4]; 9 days after PIT operation, osmotic pump
  rotarod test: time until fall, ratio to a maximum of 300 seconds as baseline: 0.437
[4]; 9 days after PIT operation, osmotic pump, listed as methylcobalamin
  rotarod test: time until fall, ratio to a maximum of 300 seconds as baseline: significantly improved
[4]; 11 days after PIT operation, osmotic pump
  rotarod test: time until fall, ratio to a maximum of 300 seconds as baseline: 0.521
[4]; 14 days after PIT operation, osmotic pump
  rotarod test: time until fall, ratio to a maximum of 300 seconds as baseline: 0.510
